Results from EP1032364B1, “TOPICAL COMPOSITIONS CONTAINING SIALYL SUGARS AND THEIR DERIVATIVES” (E-L Management Corp., priority 1998, dated 2000).
Where “and” joins values, the source holds several entries; their conditions need not be identical. Equal entries are not always repeated.

Tests used:
[1] = test system: volunteers with a history of skin sensitivity to Balsam of Peru; experiment: in vivo skin anti-irritancy test, Balsam of Peru challenge, redness by Minolta chromameter (Example 2); details: for % Decrease In Redness: 20 min before Balsam of Peru, 7 volunteers; for preventing irritation caused by a topical irritant (in words): Balsam of Peru challenge, 0.1%
Source text: The following in vivo assay illustrates the effectiveness of sialyl oligosaccharide derivatives, 3'- and 6'-sialyl lactose, in preventing skin irritation. The in vivo assays used to assess efficacy of topical anti-irritants are known to those skilled in the art, examples of such assays may be found in Muizzuddin et al., 1990, J. Soc. Cosmet. Chem. 41:369-378, and Lubach et al. in Topical Corticoids, Maibach & Surber (eds.) Basel, Karger, 1992, pp. 26-41, both of which are incorporated herein by reference in their entirety. The skin anti-irritancy effects of 3'- and 6'- sialyl lactose were tested on 7 volunteers with a history of skin sensitivity to Balsam of Peru. The test compounds were applied to the ventral forearms of the panelists. The material was allowed to absorb for twenty minutes and then Balsam of Peru, an irritant, was applied to the test sites. Skin irritation was measured in terms of increase in skin redness.
The degree of redness was measured with the Minolta chromameter and compared with the positive and negative controls. The positive control was the color of skin treated with Balsam of Peru alone and the negative control was the skin treated with cola material challenged like the test material.

[2] = test system: PMN-endothelial cells; experiment: in vitro inhibition of adhesion of activated neutrophils to endothelial cells; type: cell-based; details: for % Inhibition of Adhesion: neutrophils activated with interleukin-1 or TPA
Description: The following in vitro assay illustrates the effectiveness of the sialyl oligosaccharide derivative, 3' sialyl lactose, in inhibiting the adhesion of cells that express SLeX on their surfaces to cells expressing a selectin receptor. The ability of 3'-sialyl lactose to inhibit cell adhesion was tested using an in vitro assay system. Neutrophils were activated with either interleukin-1 or phorbol ester, TPA, to induce expression of selections and binding to endothelial cells. The activated neutrophils were treated with either 3'-sialyl lactose at 0.01 and 0.02%, sucrose at 4% or a positive control, and then assayed for their ability to bind to PMN-endothelial cells.

[3] = test system: volunteers with a history of skin sensitivity to Balsam of Peru; experiment: in vivo skin anti-irritancy test, Balsam of Peru challenge, redness by Minolta chromameter (Example 3); details: 0.1% topical on ventral forearm, 20 min before Balsam of Peru, 7 volunteers
Description: The following in vivo assay illustrates the effectiveness of 3'-sialyl oligosaccharide derivatives in preventing skin irritation. The skin anti-irritancy effects of various derivatives of 3'-sialyl lactose were tested on 7 volunteers with a history of skin sensitivity to Balsam of Peru. The test compounds benzyl sialyl lactose and ethyl sialyl lactose were applied to the ventral forearms of the panelists. The material was allowed to absorb for twenty minutes and then Balsam of Peru, an irritant, was applied on the test sites. Skin irritation was measured in terms of increase in skin redness. The degree of redness was measured with the Minolta chromameter and compared with the positive and negative controls. The positive control was the color of skin treated with Balsam of Peru alone and the negative control was the skin treated with cola material challenged like the test material.

[4] = 0.1% topical on ventral forearm

With `CC(=O)N[C@H]1[C@H]([C@H](O)[C@H](O)CO)O[C@@](OC[C@H]2O[C@@H](O[C@H]3[C@H](O)[C@@H](O)[C@H](O)O[C@@H]3CO)[C@H](O)[C@@H](O)[C@H]2O)(C(=O)O)C[C@@H]1O` [6'-Sialyl lactose, 6'-sialyl lactose] the “% Decrease In Redness” value [1, 4] was 57% and the “preventing irritation caused by a topical irritant (in words)” value (“preventing irritation caused” below) [1] was “significant activity”.
`CC(=O)N[C@H]1[C@H]([C@H](O)[C@H](O)CO)OC(O)(C(=O)O)C[C@@H]1O` (some centres unmarked) [Sialic Acid, reference compound] was tested, and the “% Decrease In Redness” value [1, 4] was 31%.
`C[C@]12CCC(=O)C=C1CC[C@@H]1[C@@H]2[C@@H](O)C[C@@]2(C)[C@H]1CC[C@]2(O)C(=O)CO` [Hydrocortisone, reference compound] was tested, and the “% Decrease In Redness” value ([1]; 0.5% topical on ventral forearm) was 66%.
In the case of `OC[C@H]1O[C@@](CO)(O[C@H]2O[C@H](CO)[C@@H](O)[C@H](O)[C@H]2O)[C@@H](O)[C@@H]1O` [Sucrose, reference compound], the “% Inhibition of Adhesion” value ([2]; test compound at 4.0%) is reported as 40%.
For `CC(=O)N[C@H]1[C@H]([C@H](O)[C@H](O)CO)O[C@@](O[C@H]2[C@@H](O)[C@@H](CO)O[C@@H](O[C@H]3[C@H](O)[C@@H](O)C(O)O[C@@H]3CO)[C@@H]2O)(C(=O)O)C[C@@H]1O` (some centres unmarked) [3'-Sialyl lactose, 3'-N acetylneuraminyl-lactose], the “% Decrease In Redness” value [1, 4] was 69% and 67%, the “preventing irritation caused” value [1] was “significant activity” and the “inhibiting the adhesion of cells that express SLeX to cells expressing a selectin receptor (in words)” value ([2]; 0.02%, IL-1 induced neutrophils) was “very effective”. The “% Inhibition of Adhesion” value ([2]; test compound at 0.01%) was 39% and the “% Inhibition of Adhesion” value ([2]; test compound at 0.02%) was 61%.
With ethyl sialyl lactose the “% Decrease In Redness” value [3] was 40.6% and the “% Decrease In Redness” value ([3]; listed as lactose ethyl) was 40.6%.
In the case of `CC(=O)N[C@H]1[C@H]([C@H](O)[C@H](O)CO)O[C@@](O[C@H]2[C@@H](O)[C@@H](CO)O[C@@H](O[C@H]3[C@H](O[C@@H]4O[C@@H](C)[C@@H](O)[C@@H](O)[C@@H]4O)[C@@H](NC(C)=O)C(O)O[C@@H]3CO)[C@@H]2O)(C(=O)O)C[C@@H]1O` (some centres unmarked) [Sialyl Lewis X, NeuAcα2-3βGalβ1-4(Fucα1-3)GlcNAc, reference compound], the “% Decrease In Redness” value [1, 4] is reported as 66%.
`OC[C@H]1O[C@@H](O[C@H]2[C@H](O)[C@@H](O)C(O)O[C@@H]2CO)[C@H](O)[C@@H](O)[C@H]1O` (some centres unmarked) [Lactose, reference compound] was tested, and the “% Decrease In Redness” value [1, 4] was 45% and the “preventing irritation caused” value [1] was “ineffective”.
benzyl sialyl lactose was tested, and the “% Decrease In Redness” value [3] was 42.47% and the “% Decrease In Redness” value ([3]; listed as benzyl sialyl lactose) was 42.47%.
